According to patent US20160367556A1, “Therapeutic Agent for Ocular Disease or Prophylactic Agent for Ocular Disease” (Japan Tobacco Inc., priority 2013, published 2016):
Where “and” joins values, the source holds several entries; their conditions need not be identical. Equal values may be shown once. Read-outs that look alike come from different tables or passages of the source.

Tests used:
[1] = test system: VEGF-induced retinal vascular permeability; assay: Retinal vascular permeability suppression by oral administration in rat model where VEGF-induced retinal vascular permeability was increased; type: in vivo; conditions: oral 10, 30 or 100 mg/kg; vitreous protein 24 hours after intravitreal rat VEGF164 400 ng/eye; FIG. 1
Description: Experiment 1. Retinal vascular permeability suppression by oral administration of Compound A in rat model where VEGF-induced retinal vascular permeability was increased A rat model where VEGF-induced retinal vascular permeability was increased was used to evaluate the ability of suppressing an increase of the retinal vascular permeability by Compound A. The animal model was prepared with appropriate modifications based on Non-Patent Literature 3, etc. As experimental animals, male Brown Norway rats aged 8 weeks {CHARLES RIVER LABORATORIES JAPAN, INC.} were used. Inside the vitreous body of each eye of rats, rat VEGF164 {400 ng/eye, R&D Systems, Inc.} was injected <VEGF-administered group>. Inside the vitreous body of each eye of rats in a normal control group, D-PBS (-) {Sigma-Aldrich Corporation} was intravitreally injected. Each group included four rats <eight eyeballs>. […] The protein concentration in the sampled vitreous body was determined by the Bradford method. The rate of suppressing an increase of the retinal vascular permeability was calculated according to the following equation X. Rate of suppressing increase of retinal vascular permeability (%)=(PB-PX)/(PB-PA)×100 [Equation X] […]

[2] = test system: VEGF-induced retinal vascular permeability; assay: Retinal vascular permeability suppression by intravitreal injection in rat model where VEGF-induced retinal vascular permeability was increased; type: in vivo; conditions: intravitreal 10, 30 or 100 μg/eye mixed with rat VEGF164 400 ng/eye; vitreous protein at 24 hours; FIG. 2
Description: Experiment 2. Retinal vascular permeability suppression by intravitreal injection of Compound A in rat model where VEGF-induced retinal vascular permeability was increased As experimental animals, male Brown Norway rats aged 8 weeks {CHARLES RIVER LABORATORIES JAPAN, INC.} were used. A mixture of rat VEGF164 {400 ng/eye, R&D Systems, Inc.} and Compound A (10 μg/eye, 30 μg/eye or 100 μg/eye) dissolved or suspended in a base was injected into the vitreous body of each eye of rats <Compound A-administered group>. In the vitreous body of each eye of rats of a base-administered group, a mixture of rat VEGF164 and the base of the same volume as that of the Compound A-administered group was injected. As the base, an aqueous base was used. In the vitreous body of each eye of rats of a normal control group, D-PBS (-) {Sigma-Aldrich Corporation} was injected. Each group included four rats <eight eyeballs>. At 24 hours after intravitreal injection of VEGF, rats were euthanized, and the eyeballs of the rats were enucleated while avoiding contamination with blood. […] The protein concentration in the sampled vitreous body was determined by the Bradford method. The rate of suppressing an increase of the retinal vascular permeability was calculated according to the following equation X. Rate of suppressing increase of retinal vascular permeability (%)=(PB-PX)/(PB-PA)×100 [Equation X] […]

[3] = Plasma concentration after single oral administration to rats (LC-MS); type: in vivo; conditions: rat, oral 100 mg/kg single; for concentration at 0.5 h / concentration at 1 h / concentration at 2 h / concentration at 4 h / concentration at 6 h / concentration at 24 h: male, Crl:CD <SD>, plasma, po, 100 mg/kg
Description: (§1) Experiment 3. Ocular tissue distribution and systematic exposure of Compound A orally administered or intravitreally injected
(§2) As experimental animals, male Crl:CD <SD> rats aged 8 weeks {CHARLES RIVER LABORATORIES JAPAN, INC.} were used.
(§3) Compound A suspended in a 1% (w/v) methylcellulose aqueous solution was orally administered to rats at 100 mg/kg. At 0.5, 1, 2, 4, 6 and 24 hours after oral administration, plasma and neural retina were sampled, and the concentrations of Compound A in the plasma and in the neural retina were quantified by liquid chromatography mass spectrometry <LC-MS>.
(§4) Transition of plasma concentration of Compound A orally administered (100 mg/kg) was shown in Table 1, transition of neural retina concentration of Compound A orally administered (100 mg/kg) was shown in Table 2, and transition of neural retina concentration of Compound A intravitreally injected (10 μg/eye) was shown in Table 3.

[4] = Neural retina concentration after single oral administration to rats (LC-MS); type: in vivo, rat
Description: as §1, §2, §3, §4

[5] = Neural retina concentration after intravitreal injection to rats (LC-MS); type: in vivo; conditions: rat, intravitreal 10 μg/eye
Description: as §1, §2
In the vitreous body of each eye of rats, Compound A dissolved or suspended in a base was injected at 10 μg/eye. At 1, 2, 4 and 24 hours after intravitreal injection, neural retina was sampled, and the concentration of Compound A in the neural retina was quantified by LC-MS. Each group included two to three rats <four to six eyeballs>.
as §4

Structure (SMILES): C[C@H]1CN(C(=O)CC#N)[C@]12CCN(c1ncnc3[nH]ccc13)C2 [Compound A, 3-[(3S,4R)-3-Methyl-6-(7H-pyrrolo[2,3-d]pyrimidin-4-yl)-1,6-diazaspiro[3.4]octan-1-yl]-3-oxopropanenitrile]
- suppression of retinal vascular permeability [1]: suppression of retinal vascular permeability
- suppression of retinal vascular permeability [2]: suppression of retinal vascular permeability
- concentration at 0.5 h ([3]; 0.5 hr, average, read-out: Plasma concentration of Compound A, Average): 6320 ng/mL
- concentration at 0.5 h ([3]; 0.5 hr, individual animal, read-out: Plasma concentration of Compound A): 5810 ng/mL
- concentration at 1 h ([3]; 1 hr, average, read-out: Plasma concentration of Compound A, Average): 8260 ng/mL
- concentration at 1 h ([3]; 1 hr, individual animal, read-out: Plasma concentration of Compound A): 7950 ng/mL
- concentration at 2 h ([3]; 2 hr, average, read-out: Plasma concentration of Compound A, Average): 6350 ng/mL
- concentration at 2 h ([3]; 2 hr, individual animal, read-out: Plasma concentration of Compound A): 6520 ng/mL
- concentration at 4 h ([3]; 4 hr, average, read-out: Plasma concentration of Compound A, Average): 4140 ng/mL
- concentration at 4 h ([3]; 4 hr, individual animal, read-out: Plasma concentration of Compound A): 4860 ng/mL
- concentration at 6 h ([3]; 6 hr, average, read-out: Plasma concentration of Compound A, Average): 4050 ng/mL
- concentration at 6 h ([3]; 6 hr, individual animal, read-out: Plasma concentration of Compound A): 3040 ng/mL
- concentration at 24 h ([3]; 24 hr, average, read-out: Plasma concentration of Compound A, Average): 20 ng/mL
- concentration at 24 h ([3]; 24 hr, individual animal, read-out: Plasma concentration of Compound A): 30 ng/mL
- Plasma concentration of Compound A ([3]; 0.5 hr, individual animal): 6830 ng/mL
- Plasma concentration of Compound A ([3]; 1 hr, individual animal): 8570 ng/mL
- Plasma concentration of Compound A ([3]; 2 hr, individual animal): 6180 ng/mL
- Plasma concentration of Compound A ([3]; 4 hr, individual animal): 3410 ng/mL
- Plasma concentration of Compound A ([3]; 6 hr, individual animal): 5060 ng/mL
- Plasma concentration of Compound A ([3]; 24 hr, individual animal): 20 ng/mL
- passage through the blood-retina barrier [4]: passes through the blood-retina barrier
- concentration at 0.5 h ([4]; male, Crl:CD <SD>, rat, neural retina, po, 100 mg/kg, rat, oral 100 mg/kg single, 0.5 hr, average, read-out: Neural retina concentration of Compound A, Average): 3740 ng/mL
- concentration at 0.5 h ([4]; male, Crl:CD <SD>, rat, neural retina, po, 100 mg/kg, rat, oral 100 mg/kg single, 0.5 hr, individual eye, read-out: Neural retina concentration of Compound A): 2960 ng/mL
- concentration at 1 h ([4]; male, Crl:CD <SD>, rat, neural retina, po, 100 mg/kg, rat, oral 100 mg/kg single, 1 hr, average, read-out: Neural retina concentration of Compound A, Average): 3860 ng/mL
- concentration at 1 h ([4]; male, Crl:CD <SD>, rat, neural retina, po, 100 mg/kg, rat, oral 100 mg/kg single, 1 hr, individual eye, read-out: Neural retina concentration of Compound A): 3930 ng/mL
- concentration at 2 h ([4]; male, Crl:CD <SD>, rat, neural retina, po, 100 mg/kg, rat, oral 100 mg/kg single, 2 hr, average, read-out: Neural retina concentration of Compound A, Average): 2720 ng/mL
- concentration at 2 h ([4]; male, Crl:CD <SD>, rat, neural retina, po, 100 mg/kg, rat, oral 100 mg/kg single, 2 hr, individual eye, read-out: Neural retina concentration of Compound A): 2660 ng/mL
- concentration at 4 h ([4]; male, Crl:CD <SD>, rat, neural retina, po, 100 mg/kg, rat, oral 100 mg/kg single, 4 hr, average, read-out: Neural retina concentration of Compound A, Average): 2390 ng/mL
- concentration at 4 h ([4]; male, Crl:CD <SD>, rat, neural retina, po, 100 mg/kg, rat, oral 100 mg/kg single, 4 hr, individual eye, read-out: Neural retina concentration of Compound A): 2300 ng/mL
- concentration at 6 h ([4]; male, Crl:CD <SD>, rat, neural retina, po, 100 mg/kg, rat, oral 100 mg/kg single, 6 hr, average, read-out: Neural retina concentration of Compound A, Average): 1920 ng/mL
- Neural retina concentration of Compound A ([4]; rat, oral 100 mg/kg single, 0.5 hr, individual eye, 100 mg/kg): 4.42 µg/mL and 4.89 µg/mL and 2.70 µg/mL
- Neural retina concentration of Compound A ([4]; rat, oral 100 mg/kg single, 1 hr, individual eye, 100 mg/kg): 4.48 µg/mL and 3.24 µg/mL and 3.80 µg/mL
- Neural retina concentration of Compound A ([4]; rat, oral 100 mg/kg single, 2 hr, individual eye, 100 mg/kg): 2.12 µg/mL and 3.38 µg/mL
- Neural retina concentration of Compound A ([4]; rat, oral 100 mg/kg single, 4 hr, individual eye, 100 mg/kg): 2.54 µg/mL and 2.29 µg/mL and 2.43 µg/mL
- Neural retina concentration of Compound A ([4]; rat, oral 100 mg/kg single, 6 hr, individual eye, 100 mg/kg): 2.90 µg/mL and 2.24 µg/mL and 1.05 µg/mL and 1.47 µg/mL
- Neural retina concentration of Compound A ([4]; rat, oral 100 mg/kg single, 24 hr, individual eye): BLQ (Below the lower limit of quantification (ca. 0.16 μg/g))
- concentration at 1 h ([5]; male, Crl:CD <SD>, neural retina, other: intravitreal injection, 10 μg/eye, 1 hr, average, read-out: Neural retina concentration of Compound A, Average): 45000 ng/mL
- concentration at 1 h ([5]; male, Crl:CD <SD>, neural retina, other: intravitreal injection, 10 μg/eye, 1 hr, individual eye, read-out: Neural retina concentration of Compound A): 39500 ng/mL
- concentration at 2 h ([5]; male, Crl:CD <SD>, neural retina, other: intravitreal injection, 10 μg/eye, 2 hr, average, read-out: Neural retina concentration of Compound A, Average): 9690 ng/mL
- concentration at 4 h ([5]; male, Crl:CD <SD>, neural retina, other: intravitreal injection, 10 μg/eye, 4 hr, average, read-out: Neural retina concentration of Compound A, Average): 1550 ng/mL
- Neural retina concentration of Compound A ([5]; 1 hr, individual eye): 52.66 µg/mL and 45.53 µg/mL and 42.17 µg/mL
- Neural retina concentration of Compound A ([5]; 2 hr, individual eye): 6.28 µg/mL and 13.49 µg/mL and 4.73 µg/mL and 12.71 µg/mL and 15.78 µg/mL and 5.13 µg/mL
- Neural retina concentration of Compound A ([5]; 4 hr, individual eye): 2.07 µg/mL and 2.64 µg/mL and 0.27 µg/mL and 1.42 µg/mL and 1.66 µg/mL and 1.26 µg/mL
- Neural retina concentration of Compound A ([5]; 24 hr, individual eye): BLQ (Below the lower limit of quantification (ca. 0.16 μg/g))
